According to ChEMBL document CHEMBL1151308, “Acanthosterol sulfates A-J: ten new antifungal steroidal sulfates from a marine sponge Acanthodendrilla sp” (1998):
The source made the active and inactive calls. The calls are words filed in the database; no cut-off is given here.

Experiments:
Saccharomyces cerevisiae [1] = assay: Antifungal activity against Saccharomyces cerevisiae GT160-45c at 0.1 mg/disk; type: functional, organism-based
Saccharomyces cerevisiae [2] = assay: Antifungal activity against Saccharomyces cerevisiae A364A at 0.1 mg/disk; type: functional
Saccharomyces cerevisiae [3] = assay: Antifungal activity against Saccharomyces cerevisiae RAY-3Aa at 0.1 mg/disk; type: functional, organism-based
Saccharomyces cerevisiae [4] = assay: Antifungal activity against Saccharomyces cerevisiae STX338-2C mutant at 0.1 mg/disk; type: functional
Saccharomyces cerevisiae [5] = assay: Antifungal activity against Saccharomyces cerevisiae 14028g mutant at 0.1 mg/disk; type: functional

| SMILES | Activity (Saccharomyces cerevisiae [1]) | inhibition zone (IZ) (Saccharomyces cerevisiae [2]) | Activity (Saccharomyces cerevisiae [3]) | inhibition zone (IZ) (Saccharomyces cerevisiae [4]) | inhibition zone (IZ) (Saccharomyces cerevisiae [5]) |
| --- | --- | --- | --- | --- | --- |
| CC(=O)O[C@@H]1C[C@]2(C)[C@H]3CC[C@]4(C)[C@@H]([C@H](C)[C@@H]5O[C@H]5[C@@H](C)C(C)C)CC[C@H]4C3=CC[C@H]2[C@H](OS(=O)(=O)[O-])[C@H]1O.[Na+] [ACANTHOSTEROL SULFATE J] | inactive | 11 mm | inactive | 10 mm | 11 mm |
| CC(=O)O[C@@H]1C[C@]2(C)[C@H]3CC[C@]4(C)[C@@H]([C@H](C)[C@@H]5O[C@H]5[C@H](C)C(C)C)CC[C@H]4C3=CC[C@H]2[C@H](OS(=O)(=O)[O-])[C@H]1O.[Na+] [ACANTHOSTEROL SULFATE I] | inactive | 7 mm | inactive | 8 mm | 9 mm |
